According to patent US20250122479A1, “GENERATION OF LUNG ORGANOIDS FROM PLURIPOTENT STEM CELLS AND USE THEREOF” (THE TRUSTEES OF COLUMBIA UNIVERSITY IN THE CITY OF NEW YORK, priority 2022, published 2025):

How the values were obtained:
Type in all cases: cell-based, human
WT (R2) TLO = experiment: ER stress induction by tunicamycin, WT TLOs; conditions: one week after removal of tunicamycin (5 hour challenge)
Experimental: (§1) We challenged for 5 hours with tunicamycin, a protein glycosylation inhibitor that prevents protein maturation and causes ER stress.^65 and measured ER stress components after 5 hrs, upon removal tunicamycin, and after 1 week (FIG. 7b). […] Of particular interest is ATF4, as ATF4 is an effector protein implicated not only in the UPR^ER via PERK phosphorylation but also in the integrated stress response (ISR)^66.
(§2) Total RNA was extracted according to manufacturer's instructions using the Direct-zol™ RNA Microprep (Zymo Research, Irvine, CA), and 500 ng of total RNA was reverse transcribed using the qScript™ XLT cDNA SuperMix (Quantabio, Beverly, MA). Technical triplicates of […] reaction (for use in Applied Biosystems QuantStudio7 384-well System, Waltham, MA) were prepared with 3 μl of diluted cDNA and run for 40 cycles. Relative gene expression was calculated based on the average cycle (Ct) value, normalized to GAPDH as the internal control and reported as fold change (2(−ddCT)).

HPS1−/− TLOs [1] = experiment: ER stress induction by tunicamycin, HPS1-/- TLOs
Experimental: as §1, §2

ABCA3−/− TLOs = experiment: ER stress induction by tunicamycin, ABCA3-/- TLOs; conditions: one week after removal of tunicamycin; compared with HPS1−/− TLOs
Experimental: as §1, §2

HPS1−/− TLOs [2] = conditions: one week after removal of tunicamycin
Experimental: as §1

TLOs [3] = experiment: Distal differentiation of TLOs (removal of CHIR and KGF, TGF-b blockade with SB); conditions: removing CHIR and KGF and blocking TGF-b signaling using SB (DCI+SB)
Experimental: We next used empirical approaches to differentiate the cells into more mature proximal of distal lineages.
as §2

TLOs [4] = experiment: CHIR withdrawal from TLOs cultured in CK-DCI; conditions: 1 to 5 days after withdrawal of CHIR; Ki67, cCASP3, AT2 marker RT-PCR
Experimental: As removing WNT signaling has been reported to induce AT2 maturation in alveolospheres,^26,27 we withdrew CHIR.
Matrigel embedded lung organoids can be used for TLO generation when they reach d42 of development. Media was removed from the transwell and 1 ml of 2 mg/ml dispase (Corning) was added to release lung organoid from the Matrigel for 30-45 minutes in normoxic incubator. The organoid was transferred to a 15 ml conical tube and washed with stop media (DMEM (Corning), 5% FBS (Atlanta Biologicals; Flowery Branch, Georgia), 1% Glutamax (ThermoFisher)) to neutralize Dispase, then centrifuged at […] for 5 minutes. The pellet was incubated with 1 ml of 0.05% Trypsin/EDTA in normoxic incubator for 10-12 minutes with occasional pipetting with a P1000 pipet tip. Single cell dissociation was verified using a bright field microscope. If a single cell suspension was not obtained after 12 minutes, cells were washed with stop media and incubated for additional 5 minutes with 0.05% Trypsin/EDTA. Cells were counted using a hemocytometer and 400 cells/μl of undiluted Matrigel were plated in a well of a 12-well non-tissue culture plate. […]

tunicamycin
expression of ER stress mediators (XBP1, BIP, CHOP, ATF4) (WT (R2) TLO): expression of BIP, CHOP and ATF4 were strikingly increased | expression of ER stress mediators (BIP, XBP1 splicing) (HPS1−/− TLOs [1]; after 5 hrs tunicamycin challenge): significantly increased expression of BIP and of XBP1 splicing | expression of ER stress mediators (XBP1 splicing, CHOP, ATF4) (HPS1−/− TLOs [1]; one week after removal of tunicamycin (5 hour challenge)): maintained elevated splicing of XBP1 but entirely failed to upregulate CHOP and ATF4 | expression of ER stress mediators (ABCA3−/− TLOs): A similar response, though less pronounced | apoptosis (HPS1−/− TLOs [2]): increased apoptosis

NC(=O)c1ccc(-c2nc(-c3ccc4c(c3)OCO4)c(-c3ccccn3)[nH]2)cc1 [SB, SB431542]
expression of AT2 and AT1 markers (TLOs [3]): further upregulation of not only AT2, but also of AT1 markers

Cc1c[nH]c(-c2cnc(NCCNc3ccc(C#N)cn3)nc2-c2ccc(Cl)cc2Cl)n1 [CHIR, CHIR99021]
effect of CHIR withdrawal on TLOs (TLOs [4]): disintegration, proliferation arrest (FIG. 3b), apoptosis (FIG. 3c) and loss of AT2 markers
